The numbers were not newly measured in US20230218796A1, “Tissue adhesive for use in a treatment method in which an ophthalmological implant is implanted in a human or animal patient, and ophthalmological implantation system” (priority 2020, published 2023), which cites them from elsewhere.

For series [1], the system named is cell growth in the capsular bag.
Series [2] relates to epithelial cell layer of the cornea. To be noted: free thapsigargin released into the aqueous humor in the anterior chamber.

Structures are written as SMILES.

On to `C/C=C(/C)C(=O)O[C@H]1C(C)=C2[C@H]([C@@H]1OC(=O)CCCCCCC)[C@@](C)(OC(C)=O)C[C@H](OC(=O)CCC)[C@@]1(O)[C@H]2OC(=O)[C@@]1(C)O` [thapsigargin], for which the “higher concentration that induces cell death” value in series [1] (higher concentrations) was 10 to 100 µM. In series [1] (low concentrations), the “low concentration that greatly reduces cell growth in the capsular bag” value is 100 nM. Also, the “damage to the cornea on free release into the aqueous humor in the anterior chamber” value in series [2] is reported as “can damage the epithelial cell layer of the cornea”.
